Laboratory results taken from US12552854B2, “Peptides that block presentation of antigenic islet peptides by HLA-DQ8 and methods for treating type-1 diabetes” (Icahn School of Medicine at Mount Sinai, priority 2019, dated 2026).
Several values for one entry are separate records, joined by “and”; a condition that tells them apart may be missing. Identical values can stand only once. Like-named read-outs stand apart in the source and are kept apart here.

Assays:
[1] = molecular target: T1, HLA-DQ8 expressed on BSM cells (Homo sapiens, UniProt P01909+P01920, F237L); assay: Flow cytometric analysis of InsB:9-23 peptide binding to BSM cells; format: cell-based; conditions: 10 μM peptide; flow cytometry
T1 construct: BSM cells that express HLA-DQ8 on their surface; host or cells: BSM cells (B-cell line homozygous for HLA-DQ8)
T1 sequence (P01920 33-261 A45G/Y58L/E77G/D89A/H199R/T217I, other chains not shown): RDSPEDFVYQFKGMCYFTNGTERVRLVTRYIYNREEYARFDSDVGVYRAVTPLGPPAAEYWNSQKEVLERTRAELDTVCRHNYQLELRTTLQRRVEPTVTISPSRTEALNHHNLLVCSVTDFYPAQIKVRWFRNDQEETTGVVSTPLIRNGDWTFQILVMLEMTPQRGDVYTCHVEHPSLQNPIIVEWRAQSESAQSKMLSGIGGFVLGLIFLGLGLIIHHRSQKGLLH
Experimental: N-terminal biotinylated peptide InsB:9-23 (or gliadin) were used to test for binding to BSM cells that express HLA-DQ8 on their surface. APC-streptavidin (BD Biosciences, Franklin Lakes, NJ) were used to detect the biotinylated peptides. […] After 24 hours incubation, cells were stained with PE-mouse anti-human HLA-DQ8 (BD Biosciences) and APC-streptavidin to detect the percent binding of the peptide to BSM cells with or without D-peptides. Percent binding was analyzed by flow cytometry.

[2] = Metabolic stability in mouse hepatocytes; format: in vitro ADME; conditions: 1 μM
Experimental: Cryopreserved mouse hepatocytes were thawed at 37° C. in water bath until the ice was almost melted (˜90 seconds). The suspensions from the each were immediately transferred to 50 mL centrifuge tubes containing pre-warmed thawing media (VitroGRO HT Medium, Thawing) at 37° C. The cell suspensions were centrifuged at 50 g for 5 minutes at 4° C. (SYS679). Supernatants were discarded and the pellets were re-suspended in pre-warmed 3 mL incubation media (from in vitroGRO HT Medium, Incubation) at 37° C. The percentages of viable cells in the suspension were determined by using the Trypan Blue stain method (20 μL of tryptan blue and 20 μL of cell suspension) DF=2. Cryo mouse hepatocyte (Bioreclamation, lot #CHV) viability was 72.62% (viable/dead=305/115), and the total cells were 4.57 million. 1.57 mL of incubation media was added to cell concentration to get 1 million cells/mL. 10 μl of 100 μM test compounds stock in ACN:H2O (v:v, 1:1) was added to 990 μl of hepatocyte suspension/incubation media in a 24-well plate. 10 μl of 20 μM Midazolam was added to 990 μl of hepatocyte suspension as a positive control in a 24-well plate. The cells were incubated in a 37° C. incubator (SYS431) for 4 hours. 50 μl of aliquots (n=2) were added to 800 ul of MeOH:water (v:v, 5:95) at 0, 15, 30, 60, 120, 180 and 240 minutes. For all samples, 20 μL of internal standard (200 ng/mL tolbutamide) was added to the solution in water. The samples were vortexed vigorously for 5 minutes and then loaded onto a pre-conditioned Oasis HLB 96-well SPE plate (10 mg, […]). The Oasis HLB 96-well SPE plate was conditioned with 1 mL of methanol and then rinsed with 1 mL of water before the samples were loaded. Once loaded onto the Oasis HLB 96-well SPE plate, residual solution was removed by vacuum. The samples were eluted into a clean 96-well plate with 800 μL of 0.1% formic acid in 70% acetonitrile. The samples were evaporated to dryness under nitrogen at ambient temperature using a TurboVap 96 Concentration Workstation (Caliper Life Sciences). […]

[3] = Pharmacokinetics of RI-CT in male CD-1 mice; conditions: mouse, in vivo
Experimental: 30 μL of each STD, QC sample and matrix for blanks was added to separate wells of a 96 well plate. 800 μL of water:MeOH (95:5, v/v) was added to the STDs, QCs and blanks. For study samples, 400 μL of water:MeOH (95:5, v/v) was added to each. Mouse whole blood samples were diluted 1:2 with 0.1% formic acid in an aqueous 25 mM EDTA solution when samples were collected; consequently, there was an initial dilution factor of 3. Additionally, 400 μL of water:MeOH (95:5, v/v) was added to each diluted sample. To all samples, 20 μL of internal standard (200 ng/mL tolbutamide) solution in water was added. The samples were vortexed vigorously for 5 minutes and then loaded onto a pre-conditioned Oasis HLB 96-well SPE plate. The Oasis HLB 96-well SPE plate was conditioned with 1 mL of methanol and then rinsed with 1 mL of water before the samples were loaded. Once loaded onto the Oasis HLB 96-well SPE plate, residual solution was removed by vacuum. The samples were eluted into a clean 96-well plate with 800 μL of ACN: 0.1% aqueous formic acid (70:30, v/v). The samples were evaporated to dryness under nitrogen at ambient temperature using a TurboVap 96 Concentration Workstation (Caliper Life Sciences). The residues were reconstituted in 150 μL of ACN: 0.1% aqueous formic acid (25:75, v/v) and 10 μL of 0.1 M TCEP. The samples were vortexed for approximately 10 minutes and then aliquots were injected for LC-MS/MS analysis.
• LC System: System #731 • HPLC Pump: Shimadzu LC-30AD • Autosampler: Shimadzu SIL-30AC MP HPLC Conditions: • Mobile Phase A=0.1% Aqueous Formic Acid • Mobile Phase B=0.1% Formic Acid in ACN • Column Temperature=Ambient • Injection Volume=8 μL • Column=ACE C8, 2.1×50 mm, 5 μm • Flow rate=0.6 mL/min • MS/MS System: System #730 • SCIEX API 5500 Triple Quad (S/N 213451604) MS Conditions: • Scan Type=MRM • Polarity=Positive • Ion Source=ESI • CAD=10 • CUR=20 • GS1/GS2=50/50 • IS=2500 • TEM=550

FIG. 23A [4] = assay: FIG. 23A
Experimental: (§1) Table printed on a drawing sheet, FIG. 23A
(§2) Data from a dose of 10 mg/kg and a single discrete subcutaneous dose of 10 mg/kg are shown. FIG. 23B is a graph showing mean RI-CT whole blood concentrations in male CD-1 mice following a single IV bolus dose of 10 mg/kg and a single SC dose of 10 mg/kg. […] This is a long half-life that will make it feasible to use RI-CT in a clinical setting with a once daily dose.
First reader's note: IV arm; the last four rows (n, Mean, SD, CV%) are summary statistics over the animals, and the urine values are one merged cell for Mouse 1-4.

FIG. 23A [5] = assay: FIG. 23A; remark: listed apart in the source
Experimental: as §1, §2
First reader's note: SC arm; the last four rows (n, Mean, SD, CV%) are summary statistics over the animals, and the meaning of ** is not printed on the sheet.

**Q.** Which results are given for `CC(C)C[C@@H](NC(=O)[C@@H](Cc1ccc(O)cc1)NC(=O)[C@@H](CC(C)C)NC(=O)[C@H](NC(=O)[C@@H](CS)NC(=O)CNC(=O)[C@@H](CCC(=O)O)NC(=O)[C@@H](CCCNC(=N)N)NC(=O)CNC(=O)CN)C(C)C)C(=O)N[C@H](C)C(=O)N[C@H](CCC(=O)O)C(=O)N[C@@H](C(=O)NCC(=O)NCC(=O)O)C(C)C` [RI-CT]?
**A.** inhibition of the binding of InsB:9-23 to DQ8 expressed on BSM cells (in words) [1]: inhibits the binding; consumption of the peptide after incubation with murine hepatocytes ([2]; 4 hours): little/no consumption; metabolic stability (comparison) ([2]; mouse hepatocytes): higher metabolic stability compared to RI-EXT; clearance ([3]; iv, 10 mg/kg): 27 mL/min/kg; half-life ([3]; iv, 10 mg/kg): 7.46 h; AUC(0-inf) ([3]; sc, 10 mg/kg): 4140 ng·h/mL; Cmax ([3]; sc, 10 mg/kg): 5120 ng/mL; Tmax ([3]; sc, 10 mg/kg): 0.77 h; bioavailability ([3]; sc, 10 mg/kg): 47%; half-life ([3]; sc, 10 mg/kg): 6.02 h; Vd ([3]; IV, single dose of 10 mg/kg, whole blood, read-out: volume of distribution): 6.9 L/kg; AUC0-24 (FIG. 23A [4]): 5340 ng·h/mL; AUClast (FIG. 23A [4]): 4350 ng·h/mL and 6260 ng·h/mL and 5520 ng·h/mL; C0 (FIG. 23A [4]): 15400 ng/mL; MRTinf (FIG. 23A [4]): 4.72 h; Urine | CLrenal (FIG. 23A [4]): 2.6 mL/min/kg; Urine | Recovery (%) (FIG. 23A [4]): 8.70%; AUClast (FIG. 23A [5]): 3830 ng·h/mL; MRTinf (FIG. 23A [5]): 4.50 h
